Measurements as given in patent publication US20260027116A1, “Methods of Treating Chronic Graft-Versus-Host Disease Following Allogeneic Hematopoietic Stem Cell Transplantation” (Kadmon Corporation, LLC, priority 2022, published 2026).

Assays:
[1] = target: P-gp (Homo sapiens, UniProt P08183); experiment: transporter substrate in vitro; assay type: in vitro ADME
[2] = tested on: cGVHD symptoms; experiment: Example 1: Global Severity Rating (GSR); assay type: in vivo, human
Protocol: Maximal Improvement from Baseline in Global Severity Rating (GSR) by Clinician-reported cGVHD Assessment. […] The response was defined using the scores from 9 organs: skin, eyes, mouth, esophagus, upper gastrointestinal (GI) track, lower GI tract, liver, lungs, and joints and fascia plus GSR. End of treatment (EOT) visit was performed within 3 days after the participant's last dose of study drug. […] Analysis was performed on mITT population.

[3] = tested on: lung function; experiment: Example 1: percent predicted FEV1 change from baseline; assay type: in vivo, human; conditions: Cohort 1: 200 mg QD
Protocol: Change From Baseline in Percent Predicted Forced Expiratory Volume in 1 Second (FEV1) at Each Specified Time Points. FEV1 was the volume of air exhaled from the lungs in the first second of a forced expiration as measured by spirometer. Baseline value was defined as valid and last non-missing value obtained within 28 days prior to participant receiving first study medication. EOT visit was performed within 3 days after the participant's last dose of study drug. […] Analysis was performed on mITT population. Here, ‘number analyzed’=participants with available data for each specified category. Here, ‘O’ in the number analyzed field signifies that none of the participants were available for the analysis at the specified time points.

Sequence of P-gp (P08183 whole entry): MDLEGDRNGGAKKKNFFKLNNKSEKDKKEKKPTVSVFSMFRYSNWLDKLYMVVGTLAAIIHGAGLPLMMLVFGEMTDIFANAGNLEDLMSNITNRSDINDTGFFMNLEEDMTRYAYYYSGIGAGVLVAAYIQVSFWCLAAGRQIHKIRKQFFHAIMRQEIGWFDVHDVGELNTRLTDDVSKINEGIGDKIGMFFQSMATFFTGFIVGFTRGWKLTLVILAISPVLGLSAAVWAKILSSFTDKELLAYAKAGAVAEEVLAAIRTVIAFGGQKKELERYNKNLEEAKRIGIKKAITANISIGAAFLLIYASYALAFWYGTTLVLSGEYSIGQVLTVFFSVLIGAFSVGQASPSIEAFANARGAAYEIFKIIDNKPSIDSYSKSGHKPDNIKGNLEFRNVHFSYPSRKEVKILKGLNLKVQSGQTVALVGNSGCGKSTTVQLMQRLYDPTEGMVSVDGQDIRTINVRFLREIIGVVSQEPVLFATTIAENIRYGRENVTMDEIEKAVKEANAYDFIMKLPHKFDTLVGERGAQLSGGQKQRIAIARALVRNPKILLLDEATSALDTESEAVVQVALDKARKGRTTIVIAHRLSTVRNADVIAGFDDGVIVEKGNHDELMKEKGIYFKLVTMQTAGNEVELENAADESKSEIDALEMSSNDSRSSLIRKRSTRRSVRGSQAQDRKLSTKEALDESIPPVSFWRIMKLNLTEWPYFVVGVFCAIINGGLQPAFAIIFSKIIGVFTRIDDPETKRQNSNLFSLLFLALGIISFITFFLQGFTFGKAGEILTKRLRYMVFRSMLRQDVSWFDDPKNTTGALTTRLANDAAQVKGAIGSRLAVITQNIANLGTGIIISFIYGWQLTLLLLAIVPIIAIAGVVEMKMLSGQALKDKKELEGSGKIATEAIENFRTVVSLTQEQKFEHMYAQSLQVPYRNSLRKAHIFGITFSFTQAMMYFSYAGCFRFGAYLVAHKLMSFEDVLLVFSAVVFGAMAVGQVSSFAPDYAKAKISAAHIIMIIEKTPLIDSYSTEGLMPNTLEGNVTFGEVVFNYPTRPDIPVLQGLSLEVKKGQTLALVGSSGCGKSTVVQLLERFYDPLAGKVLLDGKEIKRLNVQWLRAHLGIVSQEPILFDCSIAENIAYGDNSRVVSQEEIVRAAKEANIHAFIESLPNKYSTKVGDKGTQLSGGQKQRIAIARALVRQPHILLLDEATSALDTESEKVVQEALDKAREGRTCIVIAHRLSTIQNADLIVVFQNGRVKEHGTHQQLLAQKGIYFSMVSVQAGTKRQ

CC(C)NC(=O)COc1cccc(-c2nc(Nc3ccc4[nH]ncc4c3)c3ccccc3n2)c1 [Belumosudil, 2-{3-[4-(1H-indazol-5-ylamino)-2-quinazolinyl]phenoxy}-N-(propan-2-yl) acetamide]
P-gp substrate [1]: substrate of P-gp | GSR maximal improvement 0, participants (%) ([2]; Cohort 1 200 mg QD): 5 (29%) participants | GSR maximal improvement 1, participants (%) ([2]; Cohort 1 200 mg QD): 0 (0%) participants | GSR maximal improvement 3, participants (%) ([2]; Cohort 1 200 mg QD): 0 (0%) participants | GSR maximal improvement from baseline −7, participants (%) ([2]; Cohort 1 200 mg QD): 0 (0%) participants | GSR maximal improvement −1, participants (%) ([2]; Cohort 1 200 mg QD): 1 (6%) participants | GSR maximal improvement −2, participants (%) ([2]; Cohort 1 200 mg QD): 2 (12%) participants | GSR maximal improvement −3, participants (%) ([2]; Cohort 1 200 mg QD): 4 (24%) participants | GSR maximal improvement −4, participants (%) ([2]; Cohort 1 200 mg QD): 2 (12%) participants | GSR maximal improvement −5, participants (%) ([2]; Cohort 1 200 mg QD): 2 (12%) participants | GSR maximal improvement −6, participants (%) ([2]; Cohort 1 200 mg QD): 0 (0%) participants | GSR maximal improvement 0, participants (%) ([2]; Cohort 2 200 mg BID): 4 (25%) participants | GSR maximal improvement 1, participants (%) ([2]; Cohort 2 200 mg BID): 1 (6%) participants | GSR maximal improvement 3, participants (%) ([2]; Cohort 2 200 mg BID): 1 (6%) participants | GSR maximal improvement from baseline −7, participants (%) ([2]; Cohort 2 200 mg BID): 0 (0%) participants | GSR maximal improvement −1, participants (%) ([2]; Cohort 2 200 mg BID): 2 (13%) participants | GSR maximal improvement −2, participants (%) ([2]; Cohort 2 200 mg BID): 4 (25%) participants | GSR maximal improvement −3, participants (%) ([2]; Cohort 2 200 mg BID): 0 (0%) participants | GSR maximal improvement −4, participants (%) ([2]; Cohort 2 200 mg BID): 0 (0%) participants | GSR maximal improvement −5, participants (%) ([2]; Cohort 2 200 mg BID): 2 (13%) participants | GSR maximal improvement −6, participants (%) ([2]; Cohort 2 200 mg BID): 2 (13%) participants | GSR maximal improvement 0, participants (%) ([2]; Cohort 3 400 mg QD): 3 (14%) participants | GSR maximal improvement 1, participants (%) ([2]; Cohort 3 400 mg QD): 1 (5%) participants | GSR maximal improvement 3, participants (%) ([2]; Cohort 3 400 mg QD): 0 (0%) participants | GSR maximal improvement from baseline −7, participants (%) ([2]; Cohort 3 400 mg QD): 2 (10%) participants | GSR maximal improvement −1, participants (%) ([2]; Cohort 3 400 mg QD): 4 (19%) participants | GSR maximal improvement −2, participants (%) ([2]; Cohort 3 400 mg QD): 4 (19%) participants | GSR maximal improvement −3, participants (%) ([2]; Cohort 3 400 mg QD): 1 (5%) participants | GSR maximal improvement −4, participants (%) ([2]; Cohort 3 400 mg QD): 3 (14%) participants | GSR maximal improvement −5, participants (%) ([2]; Cohort 3 400 mg QD): 0 (0%) participants | GSR maximal improvement −6, participants (%) ([2]; Cohort 3 400 mg QD): 0 (0%) participants | Change From Baseline in Percent Predicted Forced Expiratory Volume in 1 Second (FEV1), Mean (Standard Deviation) ([3]; Cycle 3, Day 1): 1.1 (4.8) percent predicted FEV1 | Change From Baseline in Percent Predicted Forced Expiratory Volume in 1 Second (FEV1), Mean (Standard Deviation) ([3]; Cycle 5, Day 1): −3.3 (8.0) percent predicted FEV1 | Change From Baseline in Percent Predicted Forced Expiratory Volume in 1 Second (FEV1), Mean (Standard Deviation) ([3]; Cycle 7, Day 1): −3.5 (4.6) percent predicted FEV1 | Change From Baseline in Percent Predicted Forced Expiratory Volume in 1 Second (FEV1), Mean (Standard Deviation) ([3]; Cycle 9, Day 1): −1.7 (6.8) percent predicted FEV1 | Change From Baseline in Percent Predicted Forced Expiratory Volume in 1 Second (FEV1), Mean (Standard Deviation) ([3]; Cycle 11, Day 1): −4.3 (5.2) percent predicted FEV1 | Change From Baseline in Percent Predicted Forced Expiratory Volume in 1 Second (FEV1), Mean (Standard Deviation) ([3]; Cycle 12, Day 1): −2.0 (—) percent predicted FEV1 | Change From Baseline in Percent Predicted Forced Expiratory Volume in 1 Second (FEV1), Mean (Standard Deviation) ([3]; Cycle 13, Day 1): −5.9 (9.3) percent predicted FEV1 | Change From Baseline in Percent Predicted Forced Expiratory Volume in 1 Second (FEV1), Mean (Standard Deviation) ([3]; Cycle 14, Day 1): 2.0 (—) percent predicted FEV1 | Change From Baseline in Percent Predicted Forced Expiratory Volume in 1 Second (FEV1), Mean (Standard Deviation) ([3]; Cycle 15, Day 1): −6.7 (11.7) percent predicted FEV1 | Change From Baseline in Percent Predicted Forced Expiratory Volume in 1 Second (FEV1), Mean (Standard Deviation) ([3]; Cycle 16, Day 1): 2.0 (—) percent predicted FEV1 | Change From Baseline in Percent Predicted Forced Expiratory Volume in 1 Second (FEV1), Mean (Standard Deviation) ([3]; Cycle 17, Day 1): −5.3 (9.1) percent predicted FEV1 | Change From Baseline in Percent Predicted Forced Expiratory Volume in 1 Second (FEV1), Mean (Standard Deviation) ([3]; Cycle 19, Day 1): −5.2 (9.9) percent predicted FEV1 | Change From Baseline in Percent Predicted Forced Expiratory Volume in 1 Second (FEV1), Mean (Standard Deviation) ([3]; Cycle 25, Day 1): −11.0 (15.6) percent predicted FEV1 | Change From Baseline in Percent Predicted Forced Expiratory Volume in 1 Second (FEV1), Mean (Standard Deviation) ([3]; Cycle 26, Day 1): 0.0 (—) percent predicted FEV1 | Change From Baseline in Percent Predicted Forced Expiratory Volume in 1 Second (FEV1), Mean (Standard Deviation) ([3]; Cycle 27, Day 1): −6.5 (13.4) percent predicted FEV1 | Change From Baseline in Percent Predicted Forced Expiratory Volume in 1 Second (FEV1), Mean (Standard Deviation) ([3]; Cycle 29, Day 1): −0.5 (9.2) percent predicted FEV1 | Change From Baseline in Percent Predicted Forced Expiratory Volume in 1 Second (FEV1), Mean (Standard Deviation) ([3]; Cycle 30, Day 1): 3.0 (—) percent predicted FEV1 | Change From Baseline in Percent Predicted Forced Expiratory Volume in 1 Second (FEV1), Mean (Standard Deviation) ([3]; Cycle 31, Day 1): −3.5 (12.0) percent predicted FEV1 | Change From Baseline in Percent Predicted Forced Expiratory Volume in 1 Second (FEV1), Mean (Standard Deviation) ([3]; Cycle 32, Day 1): 1.0 (—) percent predicted FEV1 | Change From Baseline in Percent Predicted Forced Expiratory Volume in 1 Second (FEV1), Mean (Standard Deviation) ([3]; Cycle 33, Day 1): 5.0 (5.7) percent predicted FEV1 | Change From Baseline in Percent Predicted Forced Expiratory Volume in 1 Second (FEV1), Mean (Standard Deviation) ([3]; Cycle 34, Day 1): 2.0 (—) percent predicted FEV1 | Change From Baseline in Percent Predicted Forced Expiratory Volume in 1 Second (FEV1), Mean (Standard Deviation) ([3]; Cycle 35, Day 1): 5.0 (0.0) percent predicted FEV1 | Change From Baseline in Percent Predicted Forced Expiratory Volume in 1 Second (FEV1), Mean (Standard Deviation) ([3]; Cycle 36, Day 1): 3.0 (—) percent predicted FEV1 | Change From Baseline in Percent Predicted Forced Expiratory Volume in 1 Second (FEV1), Mean (Standard Deviation) ([3]; Cycle 37, Day 1): −1.0 (—) percent predicted FEV1 | Change From Baseline in Percent Predicted Forced Expiratory Volume in 1 Second (FEV1), Mean (Standard Deviation) ([3]; Cycle 38, Day 1): 1.0 (—) percent predicted FEV1 | Change From Baseline in Percent Predicted Forced Expiratory Volume in 1 Second (FEV1), Mean (Standard Deviation) ([3]; Cycle 39, Day 1): 10.0 (2.8) percent predicted FEV1 | Change From Baseline in Percent Predicted Forced Expiratory Volume in 1 Second (FEV1), Mean (Standard Deviation) ([3]; Cycle 40, Day 1): −1.0 (—) percent predicted FEV1 | Change From Baseline in Percent Predicted Forced Expiratory Volume in 1 Second (FEV1), Mean (Standard Deviation) ([3]; Cycle 41, Day 1): 15.0 (—) percent predicted FEV1 | Change From Baseline in Percent Predicted Forced Expiratory Volume in 1 Second (FEV1), Mean (Standard Deviation) ([3]; Cycle 43, Day 1): 16.0 (—) percent predicted FEV1 | Change From Baseline in Percent Predicted Forced Expiratory Volume in 1 Second (FEV1), Mean (Standard Deviation) ([3]; Cycle 47, Day 1): 5.0 (—) percent predicted FEV1 | Change From Baseline in Percent Predicted Forced Expiratory Volume in 1 Second (FEV1), Mean (Standard Deviation) ([3]; Cycle 48, Day 1): 3.0 (—) percent predicted FEV1 | Change From Baseline in Percent Predicted Forced Expiratory Volume in 1 Second (FEV1), Mean (Standard Deviation) ([3]; Cycle 49, Day 1): 8.0 (—) percent predicted FEV1 | Change From Baseline in Percent Predicted Forced Expiratory Volume in 1 Second (FEV1), Mean (Standard Deviation) ([3]; Cycle 51, Day 1): 8.0 (—) percent predicted FEV1 | Change From Baseline in Percent Predicted Forced Expiratory Volume in 1 Second (FEV1), Mean (Standard Deviation) ([3]; Cycle 52, Day 1): 0.0 (—) percent predicted FEV1
